# Results as given in PMC3293801, “Differential Contribution of the Repeats to Heparin Binding of HBHA, a Major Adhesin of Mycobacterium tuberculosis” (PLoS ONE, 2012).
# Molecular target: T1, MalE-Ct (Mycobacterium tuberculosis, UniProt P9WIP9)
# T1 construct: gene hbhA; pMAL+3R1+2R2, E. coli B834; 15N-labelled; MBP kept
# Assay type: binding
# Conditions: 20 mM phosphate pH 6.8, 0.15 M NaCl, 20°C, 900 MHz, 60 µM protein; apparent, single site
# T1 sequence (P9WIP9 161-199): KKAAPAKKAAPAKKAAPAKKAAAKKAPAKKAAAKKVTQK
row,Substance,Kd [µM]
1,dp10 heparin-derived oligosaccharide,79.4 ± 23
2,dp14 heparin-derived oligosaccharide,58.8 ± 14
